For the test, the target named is T1, human mAChR M1 (Homo sapiens, UniProt P11229).
T1 sequence (P11229 1-460): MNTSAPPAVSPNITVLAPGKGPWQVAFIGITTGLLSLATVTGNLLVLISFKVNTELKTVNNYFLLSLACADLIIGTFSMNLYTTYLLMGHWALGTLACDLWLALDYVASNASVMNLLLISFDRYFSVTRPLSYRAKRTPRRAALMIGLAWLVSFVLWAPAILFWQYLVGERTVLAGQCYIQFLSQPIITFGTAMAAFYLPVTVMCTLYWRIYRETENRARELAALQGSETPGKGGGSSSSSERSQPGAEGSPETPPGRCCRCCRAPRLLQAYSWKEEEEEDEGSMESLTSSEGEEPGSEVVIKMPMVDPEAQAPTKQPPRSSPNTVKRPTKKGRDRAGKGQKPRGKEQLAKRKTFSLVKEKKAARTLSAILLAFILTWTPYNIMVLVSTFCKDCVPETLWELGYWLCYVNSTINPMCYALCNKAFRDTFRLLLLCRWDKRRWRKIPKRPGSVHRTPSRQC
The experiment in a line: mAChR M1 cell-based functional assay: calcium mobilization, positive allosteric modulator mode (increase in EC20 acetylcholine response). The note with it: for Emax: read-out: Human M1 Emax (%). From the text: a. Cell Lines Expressing Muscarinic Acetylcholine Receptors
Chinese hamster ovary (CHO-K1) cells stably expressing rat (r)M1 were purchased from the American Type Culture Collection and cultured according to their indicated protocol. CHO cells stably expressing human (h)M2, hM3, and hM5 were described previously (Levey, et al., 1991); hMi and hM4 cDNAs were purchased from Missouri S&T cDNA Resource; rM4 cDNA was provided by T. I. Bonner (National Institutes of Health, Bethesda, Md.). rM2 and rM3 were cloned from a rat brain cDNA library and sequence verified. hMi, rM2, rM3, hM4, and rM4 cDNAs were used to stably transfect CHO-K1 cells purchased from the American Type Culture Collection using Lipofectamine2000. To make stable rM2, hM2, rM3, hM4, and rM4 cell lines for use in calcium mobilization assays, these cells also were stably transfected with a chimeric G-protein (Gqi5) (provided by B. R. Conklin, University of California, San Francisco) using Lipofectamine 2000. rMi, hMi, rM3, hM3, rM5, and hM5 cells were grown in Ham's F-12 medium containing 10% heat-inactivated fetal bovine serum (FBS), 20 mM HEPES, and 50 μg/mL G418 sulfate. rM2-Gqi5, hM2-Gqi5, and hM4-Gqi5 cells were grown in the same medium also containing 500 μg/mL Hygromycin B. Stable rM4-Gqi5 cells were grown in DMEM containing 10% heat-inactivated FBS, 20 mM HEPES, 400 μg/mL G418 sulfate, and 500 μg/mL Hygromycin B.
b. Cell-Based Functional Assay of Muscarinic Acetylcholine Receptor Activity
For high throughput measurement of agonist-evoked increases in intracellular calcium, CHO-K1 cells stably expressing muscarinic receptors were plated in growth medium lacking G418 and hygromycin at 15,000 cells/20 μL/well in Greiner 384-well black-walled, tissue culture (TC)-treated, clear-bottom plates (VWR). Cells were incubated overnight at 37° C. and 5% CO2. The next day, cells were washed using an ELX 405 (BioTek) with four washes (80 μL) of assay buffer then aspirated to 20 μL. Next, 20 μL of 16 μM Fluo-4/acetoxymethyl ester (Invitrogen, Carlsbad, Calif.) prepared as a 2.3 mM stock in DMSO and mixed in a 1:1 ratio with 10% (w/v) Pluronic F-127 and diluted in assay buffer was added to the wells and the cell plates were incubated for 50 min at 37° C. and 5% CO2. Dye was removed by washing with the ELX 405 (four […], washes of assay buffer) then aspirated to 20 μL. Compound master plates were formatted in an 11 point CRC format (1:3 dilutions) in 100% DMSO with a starting concentration of 10 mM using the BRAVO liquid handler (Agilent). Test compound CRCs were then transferred to daughter plates (240 nL) using the Echo acoustic plate reformatter (Labcyte, Sunnyvale, Calif.) and then diluted into assay buffer (40 μL) to a 2× stock using a Thermo Fisher Combi (Thermo Fisher Scientific, Waltham, Mass.).
Calcium flux was measured using the Functional Drug Screening System (FDSS) 6000 (Hamamatsu Corporation, Tokyo, Japan) as an increase in the fluorescent static ratio. Compounds were applied to cells (20 μL, 2×) using the automated system of the FDSS 6000 at 4 s into the 300 s protocol and the data were collected at 1 Hz. At 144 s into the 300s protocol, 10 μL of an EC20 concentration of the muscarinic receptor agonist acetylcholine was added (5×), followed by the addition of 12 μL an EC80 concentration of acetylcholine at the 230 s time point (5×). Agonist activity was analyzed as a concentration-dependent increase in calcium mobilization upon compound addition. Positive allosteric modulator activity was analyzed as a concentration-dependent increase in the EC20 acetylcholine response. Antagonist activity was analyzed as a concentration-dependent decrease in the EC80 acetylcholine response. Concentration-response curves were generated using a four-parameter logistical equation in XLfit curve fitting software (IDBS, Bridgewater, N.J.) for Excel (Microsoft, Redmond, Wash.) or Prism (GraphPad Software, Inc., San Diego, Calif.).

Where [1] appears, read: Table 2, human M1, read-out: Human M1 EC50.

Where two headings read alike, the source gives them in different places. Where only a bound is given, the exact number is not on record here.

For the molecule `CC1(NC(=O)c2cc(Cc3ccc(-n4cccn4)cc3)c3sccc3n2)CCCNC1` (centres unmarked) [Compound 291, N-(3-methyl-3-piperidyl)-7-[(4-pyrazol-1-ylphenyl)methyl]thieno[3,2-b]pyridine-5-carboxamide], the EC50 (as a rule, the concentration giving half of the maximal effect) under setting [1] turned out to be 1120 nM. Where the note is “Table 2, human M1”, the maximal response (Emax) (usually the size of the effect at its maximum, as opposed to the concentration needed) is 64.3%.

Take `O=C(N[C@@H]1CCOC1)c1cc(Cc2ccc(-c3cncs3)cc2)c2sccc2n1` [Compound 400]: the EC50 under setting [1] is 4210 nM. Moreover, where the note is “Table 2, human M1”, the Emax is 51.4%.

As to `Cn1ccc(-c2ccc(Cc3cc(C(=O)NCC4CCOCC4)nc4ccsc34)cn2)n1` [Compound 358, 7-[[6-(1-methylpyrazol-3-yl)-3-pyridyl]methyl]-N-(tetrahydropyran-4-ylmethyl)thieno[3,2-b]pyridine-5-carboxamide], the EC50 under setting [1] amounted to 201 nM. For the setting “Table 2, human M1”, the Emax turned out to be 84.3%.

In the case of `Cc1nc(-c2ccc(Cc3cc(C(=O)N[C@@H]4CCCCC[C@H]4O)nc4ccsc34)cc2)co1` [Compound 170, N-[(1R,2R)-2-hydroxycycloheptyl]-7-[[4-(2-methyloxazol-4-yl)phenyl]methyl]thieno[3,2-b]pyridine-5-carboxamide], the EC50 under setting [1] stood at 150 nM. For the same molecule, for the setting “Table 2, human M1”, the Emax worked out at 82.9%.

As to `Cc1ccc(Oc2cc(C(=O)NC3CCOCC3)nc3ccsc23)cn1` [Compound 20, 7-[(6-methyl-3-pyridyl)oxy]-N-tetrahydropyran-4-yl-thieno[3,2-b]pyridine-5-carboxamide], under “Table 1, mAChR M1 cell-based functional assay, PAM mode, species not given, read-out: EC50”, the EC50 was above 10000 nM.

For `Cn1ccc(-c2ccc(Cc3cc(C(=O)N[C@H]4CCC[C@@H]4O)nc4ccsc34)cc2)n1` [Compound 253, N-[(1S,2S)-2-hydroxycyclopentyl]-7-[[4-(1-methylpyrazol-3-yl)phenyl]methyl]thieno[3,2-b]pyridine-5-carboxamide], the EC50 under setting [1] was found to be 144 nM. Besides, the Emax (Table 2, human M1) amounted to 74.5%.

`Cc1nc(-c2ccc(Cc3cc(C(=O)NC4CCCNC4=O)nc4ccsc34)cc2)cs1` (centres unmarked) [Compound 198, 7-[[4-(2-methylthiazol-4-yl)phenyl]methyl]-N-(2-oxo-3-piperidyl)thieno[3,2-b]pyridine-5-carboxamide]: the EC50 under setting [1] stood at 484 nM. Moreover, the Emax (Table 2, human M1) was 90%.

Take `Cn1ccc2nc(C(=O)N[C@H]3CCC[C@@H]3O)cc(Cc3ccc(-c4cscn4)cc3)c21` [Compound 458, N-[(1S,2S)-2-hydroxycyclopentyl]-1-methyl-7-[(4-thiazol-4-ylphenyl)methyl]pyrrolo[3,2-b]pyridine-5-carboxamide]: the half-maximal effective concentration (EC50) under setting [1] came out at 129 nM. Besides, the Emax (Table 2, human M1) was found to be 73.4%.

With `Cn1ccc(-c2ccc(Cc3cc(C(=O)N[C@@H]4CC[C@H]4O)nc4ccsc34)cc2)n1` [Compound 251, N-[(1R,2R)-2-hydroxycyclobutyl]-7-[[4-(1-methylpyrazol-3-yl)phenyl]methyl]thieno[3,2-b]pyridine-5-carboxamide], the EC50 under setting [1] was determined as 234 nM. The Emax (Table 2, human M1) was 70.3%.

On to `Cc1csc2c(Cc3ccc(-n4cccn4)cc3)cc(C(=O)N[C@@H]3CCC[C@H]3O)nc12` [Compound 114, N-[(1R,2R)-2-hydroxycyclopentyl]-3-methyl-7-[(4-pyrazol-1-ylphenyl)methyl]thieno[3,2-b]pyridine-5-carboxamide], for which the EC50 under setting [1] came to 562 nM. For the same molecule, where the note is “Table 2, human M1”, the Emax worked out at 84.5%.

`O=C(NCc1cc[nH]n1)c1cc(Cc2ccc(-n3cccn3)cc2)c2sccc2n1` [Compound 448, N-(1H-pyrazol-3-ylmethyl)-7-[(4-pyrazol-1-ylphenyl)methyl]thieno[3,2-b]pyridine-5-carboxamide]: under setting [1], the EC50 turned out to be 795 nM. Besides, where the note is “Table 2, human M1”, the Emax came to 67.8%.

In the case of `Cc1nc(-c2ccc(Cc3cc(C(=O)NC4CCCCNC4=O)nc4ccsc34)cc2)cs1` (centres unmarked) [Compound 199, 7-[[4-(2-methylthiazol-4-yl)phenyl]methyl]-N-(2-oxoazepan-3-yl)thieno[3,2-b]pyridine-5-carboxamide], under setting [1], the EC50 came to 1420 nM. Moreover, where the note is “Table 2, human M1”, the Emax stood at 88.1%.

Turning to `CN1CC(NC(=O)c2cc(Cc3ccc(-n4cccn4)cc3)c3sccc3n2)CC1=O` (centres unmarked) [Compound 438, N-(1-methyl-5-oxo-pyrrolidin-3-yl)-7-[(4-pyrazol-1-ylphenyl)methyl]thieno[3,2-b]pyridine-5-carboxamide], the EC50 under setting [1] was determined as 2210 nM. The Emax (Table 2, human M1) stood at 63.1%.

Take `Cn1ccc2nc(C(=O)NC3CC(F)C3)cc(Cc3ccc(-c4nccs4)cc3)c21` (centres unmarked) [Compound 488, N-(3-fluorocyclobutyl)-1-methyl-7-[(4-thiazol-2-ylphenyl)methyl]pyrrolo[3,2-b]pyridine-5-carboxamide]: the EC50 under setting [1] was 1150 nM. Moreover, for the setting “Table 2, human M1”, the Emax was 37.5%.

Regarding `Cn1cc(-c2ccc(Cc3cc(C(=O)N[C@H]4CCOC[C@@H]4O)nc4ccsc34)cn2)cn1` [Compound 225, N-[(3R,4S)-3-hydroxytetrahydropyran-4-yl]-7-[[6-(1-methylpyrazol-4-yl)-3-pyridyl]methyl]thieno[3,2-b]pyridine-5-carboxamide], the 50% effective concentration (EC50) under setting [1] was determined as 7.31 nM. For the same molecule, the maximum response (Emax) (Table 2, human M1) came to 63.6%.

Turning to `Cc1nn(C)c(C)c1-c1ccc(Cc2cc(C(=O)N[C@H]3CCC[C@@H]3O)nc3ccsc23)cc1` [Compound 242], the EC50 under setting [1] is above 10000 nM. For the same molecule, the Emax (Table 2, human M1) turned out to be 17.8%.

With `Cn1cc(-c2ccc(Cc3cc(C(=O)N[C@H]4CCOC4)nc4ccsc34)cn2)cn1` [Compound 343, 7-[[6-(1-methylpyrazol-4-yl)-3-pyridyl]methyl]-N-[(3S)-tetrahydrofuran-3-yl]thieno[3,2-b]pyridine-5-carboxamide], the EC50 under setting [1] is 975 nM. Besides, the maximal effect (Emax) (Table 2, human M1) is 80.8%.

For the molecule `O=C(N[C@@H]1CCC[C@H]1O)c1cc(Cc2ccc(-n3cccn3)cc2)c2sccc2n1` [Compound 71, N-[(1R,2R)-2-hydroxycyclopentyl]-7-[(4-pyrazol-1-ylphenyl)methyl]thieno[3,2-b]pyridine-5-carboxamide], the EC50 under setting [1] amounted to 80.3 nM. Also, the maximal response (Emax) (Table 2, human M1) was found to be 92.7%.

For the molecule `Cn1cc(-c2ccc(Cc3cc(C(=O)N[C@H]4CCOC4)nc4ccsc34)cc2)nn1` [Compound 151, 7-[[4-(1-methyltriazol-4-yl)phenyl]methyl]-N-[(3S)-tetrahydrofuran-3-yl]thieno[3,2-b]pyridine-5-carboxamide], the EC50 under setting [1] came out at 595 nM. In addition, the Emax (Table 2, human M1) stood at 88.4%.

For the molecule `Cn1cc(-c2cc(F)c(Cc3cc(C(=O)N[C@H]4CCCC[C@@H]4O)nc4ccsc34)c(F)c2)cn1` [Compound 57, 7-[[2,6-difluoro-4-(1-methylpyrazol-4-yl)phenyl]methyl]-N-[(1S,2S)-2-hydroxycyclohexyl]thieno[3,2-b]pyridine-5-carboxamide], the EC50 under setting [1] turned out to be 2640 nM. Further, under “Table 2, human M1”, the Emax is 80.1%.

As to `Cc1csc2c(Cc3ccc(-c4ccn(C)n4)cc3)cc(C(=O)N[C@H]3CCOC[C@@H]3O)nc12` [Compound 313], under setting [1], the EC50 worked out at 22.7 nM. Where the note is “Table 2, human M1”, the Emax is 63.9%.

These data come from US11111251B2, “Positive allosteric modulators of the muscarinic acetylcholine receptor M1” (Vanderbilt University, priority 2016, dated 2021).
